Experiment: gradient 5% acetonitrile 3 min, to 50% in 2 min, to 85% in 15 min, held 3 min, 100 µL/min
Details: column: Zorbax Extend-C18 2.1 x 50 mm; eluents: water / acetonitrile, 0.1% formic acid
Outline: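 Values are retention times taken from adduct peaks that software picked and an analyst inspected. The pure standards were run as mixtures of ~100 molecules on HPLC linked to a quadrupole time-of-flight mass spectrometer, in positive and negative ionization mode. A Zorbax Extend-C18 column (2.1 × 50 mm, 1.8 μm) was used at 100 μL/min with water and acetonitrile, each including 0.1% formic acid.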

| Structure (SMILES) | RP-LC retention time |
| --- | --- |
| CCN1CCN(c2nc(F)c(F)c(S(=O)(=O)CCNc3ccccc3)c2F)CC1 | 689 s |
| O=C(NCCCc1ccccc1)C1CCCN(c2ccc(=O)n(-c3cccc(Cl)c3)n2)C1 (centres undefined) | 926 s |
| Cc1noc(-c2nc(-c3cccnc3)no2)n1 | 736 s |
| CCCNC(=O)C1CCCN(c2ccc(SCC(=O)Nc3cc(Cl)ccc3C)nn2)C1 (centres undefined) | 720 s |
| O=C(CSc1ccc(-c2ccco2)nn1)Nc1ccc(F)cc1F | 788 s |
| CN1C(=O)c2cc(C(=O)NCCCc3ccccc3)nn2CC1(C)C(=O)NCc1ccc(F)cc1 (centres undefined) | 813 s |
| Cn1nc2n(c1=O)CCN(C(=O)C1(c3ccccc3)CCCC1)CC2 | 736 s |
| O=C(NCc1ccc(F)cc1F)C1CCN(c2ccc(SCc3ccccc3)nn2)CC1 | 646 s |
| O=C(CCCS(=O)(=O)c1ccc(F)cc1)Nc1cccc(Cl)c1Cl | 850 s |
| COc1cccc(N2CCN(c3nc(C(=O)NCCN4CCOCC4)cs3)CC2)c1 | 667 s |
| CS(=O)(=O)N1CCC(C(=O)NC2CCCCCC2)Oc2ccc(Cl)cc21 (centres undefined) | 991 s |
| O=C(CCc1c(-c2ccccc2)nc2ccccn12)NC1CCCCCC1 | 666 s |
| Cc1sc(-c2cc(C(F)(F)F)on2)cc1S(=O)(=O)NCc1ccccc1 | 1110 s |
| Cn1c(=O)sc2cc(S(=O)(=O)N3CCC(C(=O)Nc4ccc(Cl)cc4)CC3)ccc21 | 926 s |
| O=C(N1CCN(c2ccccc2F)CC1)C1(CCO)CCN(c2ncccn2)C1 (centres undefined) | 652 s |
| Nc1cc(C2CCN(C(=O)Nc3ccccc3C(F)(F)F)CC2)no1 | 698 s |
| O=C(CC(c1cccs1)n1cccc1)N1CCN(c2ccccn2)CC1 (centres undefined) | 659 s |
| Cc1ccccc1CNC(=O)C1(C)Oc2cccnc2NC1=O (centres undefined) | 702 s |
| COc1ccc(-c2nnc(-c3cccc(S(=O)(=O)N4CCC(C)CC4)c3)o2)cc1 | 1110 s |
| OCCc1nc2ccccc2n1C/C=C/c1ccccc1 | 586 s |
| O=C(CCC1CCCN(c2cc(NC3CC3)ncn2)C1)NCc1ccccn1 (centres undefined) | 558 s |
| COc1ccc(S(=O)(=O)N2CCc3nc(-c4ccc(F)cc4)ncc3C2)cc1OC | 983 s |
| COC(=O)C1=CN(c2ccc(F)cc2)c2cc(F)ccc2S1(=O)=O | 789 s |

| Structure (SMILES) | RP-LC retention time |
| --- | --- |
| O=C(CC1CCCCC1)NCC(=O)Nc1nc2ccccc2[nH]1 | 661 s |
| CN(CCCNC(=O)C1CCCN(c2ncc(-c3ccccc3)cn2)C1)c1ccccc1 (centres undefined) | 826 s |
| Nc1cccc(-c2ccc(N3CCOCC3)nn2)c1 | 546 s |
| CCc1noc(NC(C)=O)c1-c1ccc(OC)c(S(=O)(=O)N2CCC(C)CC2)c1 | 864 s |
| CN1CCCn2nc(C3CCN(C(=O)c4cccc(C(F)(F)F)c4)CC3)cc2C1=O | 718 s |
| Cc1cc(C)n(Cc2nc(-c3ccc(NC(=O)Cc4cccc(F)c4)cc3)oc2C)n1 | 930 s |
| OCCN1CCN(c2ncnc3c2cnn3-c2ccccc2Cl)CC1 | 592 s |
| COC(=O)c1cnc2nc(C)ccc2c1NCc1cccc(Cl)c1 | 733 s |
| Cc1cc(C)n2nc(SCC(=O)Nc3ccccc3C(F)(F)F)nc2n1 | 753 s |
| CCNC(=O)C1CCCN(c2nc3ncn(CC(=O)NCCC4=CCCCC4)c(=O)c3s2)C1 (centres undefined) | 692 s |
| Cc1ccc(-c2nc3cnccn3c2NCCC(=O)N(C)C)cc1 | 622 s |
| CCCCN(C)C(=O)CC1CCN(c2ccnc(NC)n2)CC1 | 577 s |
| O=C1CCCc2cc(S(=O)(=O)NCCc3ccc(Cl)cc3)ccc2N1 | 800 s |
| OC(CNCc1ccc(-c2cc(Cl)ccc2Cl)o1)c1ccccc1 (centres undefined) | 762 s |
| CCc1cccc2cc([C@@H](O)CNC(C)(C)C)oc12 | 737 s |
| O=C(CN1CCSc2ccccc21)NCCCN1CCN(Cc2ccccc2)CC1 | 666 s |
| Cn1nccc1-c1cccc(-c2noc(CNC(=O)c3ccco3)n2)c1 | 733 s |
| COc1ccc(NC(=O)C2CCN(S(=O)(=O)c3ccc4c(c3)sc(=O)n4C)CC2)c(OC)c1 | 840 s |
| COc1cncc(C(=O)Nc2cc(F)ccc2Cl)c1 | 766 s |
| CCN(CC)CCNc1ncnc2onc(-c3ccc(Cl)cc3)c12 | 664 s |
| O=C(c1ccn2c(-c3ccccc3Br)nnc2c1)N1CCN(c2ccccn2)CC1 | 555 s |
| Cn1c(=O)n([C@H]2CCN(C(=O)C3(c4ccccc4)CC3)C2)c2ncccc21 | 733 s |
| CCc1ccc(N2C(=O)Nc3ccccc3C2(O)C(=O)NCCN(CC)CC)cc1 (centres undefined) | 575 s |

| Structure (SMILES) | RP-LC retention time |
| --- | --- |
| Cc1ccc(OCC(=O)N(C)CC2(C)CCOCC2)cc1 | 799 s |
| CNC(=O)CN1C(=O)C2CCCCN2c2ccc(S(=O)(=O)N(C)C)cc21 (centres undefined) | 690 s |
| COCC(=O)N(CC(=O)N1CCc2sccc2C1COc1ccc(C)cc1C)CC1CC1 (centres undefined) | 982 s |
| CCOc1ccccc1NC(=O)N1CCC(CN2CCC(C)CC2)CC1 | 582 s |
| Cc1cc(C(=O)N2CCN(c3ccccc3Cl)CC2)nc2ccnn12 | 875 s |
| Cc1c(CCO)c(=O)n2n1CCCC2 | 618 s |
| CCC(C(=O)Nc1cccc(C)c1)n1cnc2nc3c(cc2c1=O)CCCC3 (centres undefined) | 834 s |
| O=C1C(OC2CCN(S(=O)(=O)c3ccccc3Cl)CC2)CCN1CC1CC1 (centres undefined) | 870 s |
| CCn1c(=O)c(=O)n(CC(=O)NCc2ccco2)c2cccnc21 | 652 s |
| CC1(C)Cc2cccc(OCC(=O)NCCc3c[nH]c4ccccc34)c2O1 | 850 s |
| CCOc1cc(Cl)c(S(=O)(=O)NCc2ccccn2)cc1Cl | 715 s |
| Cc1nnc(-c2cc(C)n(CC(=O)Nc3ccc(Br)cc3C)c2C)o1 | 847 s |
| Cc1cccc(-c2noc(Cc3nnc(-c4cccc(Br)c4)o3)n2)c1 | 1150 s |
| CN(CC1CCOCC1)C(=O)Cc1ccc(F)cc1 | 687 s |
| CCSc1nnc(NC(=O)CSc2nncn2C)s1 | 606 s |
| O=C(c1c[nH]c2ncccc12)N1CCCC1 | 589 s |
| COC(=O)c1ccc(NC(=O)Cn2c(-c3cccnc3)nc3ccccc32)cc1 | 708 s |
| Cc1ccc(N2CCN(C(=O)CN3CCN(Cc4cccc(Cl)c4)C3=O)CC2)cc1 | 905 s |
| Nc1nc(N2CCCC2)ncc1C(=O)NCc1ccccc1 | 615 s |
| COc1cccc(-n2c(=O)c(C(=O)Nc3ccc(F)cc3F)c(O)c3cccnc32)c1 | 1220 s |
| COc1ccc(-n2nnc(-c3nc(-c4ccccc4OC)cs3)c2N)cc1 | 1090 s |
| COc1ccc(-c2cc3c4nnc(CCC(=O)N5CCN(c6ccccn6)CC5)n4ccn3n2)cc1 | 605 s |
| O=C(NCCCN1CCCCC1)C1CCCN(c2ncc(-c3cccc(F)c3)cn2)C1 (centres undefined) | 684 s |

Reference: the METLIN SMRT retention time set (Domingo-Almenara et al. 2019)
